Paper PMC4120060 (Psychoneuroendocrinology, 2014)

Legend:
[1] = in vivo; cited from earlier work
[2] = in vivo; cited from earlier work; remark: listed apart in the source
[3] = Plasma OT concentration after OT administration; type: in vivo, rhesus monkeys (Macaca mulatta)
[4] = humans; four-fold lower intramuscular dose; ref Landgraf, 1985; cited from earlier work
[5] = Lumbar CSF OT concentration after OT administration; settings: N=6
[6] = ref Mens et al., 1983; cited from earlier work

increase in plasma OT after IV-OT, 15 min ([3]; IV bolus 48 IU Syntocinon, 15 min after administration, N=6, RIA) | increase in plasma OT after IV-OT, 60 min ([3]; IV bolus 48 IU Syntocinon, 60 min after administration, N=6, RIA) | plasma OT above baseline after IV-OT, 120 min ([3]; IV bolus 48 IU Syntocinon, 120 min after administration, N=6, RIA) [times] | increase in plasma OT over baseline after IN-OT ([3]; intranasal spray 24 IU Syntocinon, 60 and 120 min, N=6, RIA) [fold] | lumbar CSF OT after IV-OT ([5]; IV 48 IU Syntocinon vs placebo, 0, 60, 120 min) | lumbar CSF OT after IN-OT ([5]; intranasal spray 24 IU Syntocinon vs placebo, 0, 60, 120 min) | Compound | CSF OT concentrations after IN-OT spray versus placebo/saline [1] | passive diffusion of peptide from the plasma to the CSF [2] | plasma OT after IN-OT versus placebo ([3]; intranasal spray 24 IU Syntocinon vs placebo, 60 and 120 min, N=6) | plasma OT concentration, intramuscular relative to nasal administration [4] [fold] | half-life of OT in the blood [6] | CSF concentration of the peptide after nasal delivery [1]
thousand fold increase | hundred fold increase | 100 | 100 | no impact on lumbar CSF concentrations | No significant effect | CC[C@H](C)[C@@H]1NC(=O)[C@H](Cc2ccc(O)cc2)NC(=O)[C@@H](N)CSSC[C@@H](C(=O)N2CCC[C@H]2C(=O)N[C@@H](CC(C)C)C(=O)NCC(N)=O)NC(=O)[C@H](CC(N)=O)NC(=O)[C@H](CCC(N)=O)NC1=O [OT, oxytocin] | higher | ~ 1% | significantly increased plasma levels of OT | 10 | approximately 2 minutes | –
– | – | – | – | – | – | α-melanocyte stimulating hormone | – | – | – | – | – | increased concentrations in cerebrospinal fluid (CSF) over baseline levels
